B1: Papain: protein-splitting enzyme, plant protease (protein, UniProt P00784 134-345, looked up)
Papain: IPEYVDWRQKGAVTPVKNQGSCGSCWAFSAVVTIEGIIKIRTGNLNEYSEQELLDCDRRSYGCNGGYPWSALQLVAQYGIHYRNTYPYEGVQRYCRSREKGPYAAKTDGVRQVQPYNEGALLYSIANQPVSVVLEAAGKDFQLYRGGIFVGPCGNKVDHAVAAVGYGPNYILIKNSWGTGWGENGYIRIKRGTGNSYGVCGLYTSSFYPVKN

Experiments:
[1] = accelerated coffee staining test: hydroxyapatite disks immersed in concentrated coffee with or without additive; conditions: 7 minutes immersion in coffee (11 grams grounds to 0.5 cups water); uniform scale, 0 = un-stained disk, 5 = coffee without additive
Experimental: Initially, an accelerated staining test was performed using a very strong coffee concentrate with short periods of immersion. This protocol emulates the actual oral staining process; i.e., live teeth aren't generally submerged in coffee for long periods of time since coffee is only held in the mouth for short periods of time, and the residues are rapidly diluted by saliva. In addition, coffee chemistry and pH changes rapidly due to temperature-excited oxidation—which results in significant acid formation in the first 20 minutes after brewing. As a result, coffee immersion in-vitro for times exceeding 20 minutes exposes test-items to a chemical environment which is not representative of that found in a mouth during a typical human consumption of coffee.
As one representative example of multiple tests using CHITOSAN NICOTINATE as an essential substance to prevent staining of hydroxyapatite (as found in tooth enamel), 0.02 grams of CHITOSAN NICOTINATE was placed in one of two containers of coffee brewed with 11.0 grams of coffee grounds to 0.5 cups water. Then disks made of hydroxyapatite were immersed in each container for 7 minutes time; and subsequently compared to establish the degree of staining. For meaningful comparisons of staining, the non-CHITOSAN NICOTINATE coffee was used as the dark stain standard, with an arbitrary value of 5. […]

[2] = stain reversal: coffee-stained hydroxyapatite disk immersed in brewed coffee containing additive; conditions: previously coffee-stained disk immersed 15 minutes in brewed coffee with additive; original stain 100%, un-stained disk 0%
Experimental: In addition, when a previously-coffee-stained hydroxyapatite disk was half-immersed within the brewed coffee for 15 minutes, the coffee-immersed area was lightened by 10%, where the original stain is said to be 100% and an un-stained disk is said to be 0%.
As one example of multiple tests using protein-splitting enzymes as an essential ingredient to reverse staining of hydroxyapatite, 20 mg of Papain was placed in one container of coffee, which was then brewed with 11 grams of coffee grounds to 0.5 cups water. For this series of tests, only coffee-stained hydroxyapatite disks were then immersed in the freshly brewed coffee for 15 minutes time.

Molecule	degree of staining of hydroxyapatite disks [1]	coffee-immersed stained area lightened by [2]
CS(C)(=O)=O [METHYLSULFONYLMETHANE (DIMETHYLSULFONE), METHYLSULFONYLMETHANE]	2	–
B1	–	20%
